# From publication PMC10924921, “Mi-2β promotes immune evasion in melanoma by activating EZH2 methylation” (Nature Communications, 2024)
# Experiments:
# Test in all cases: biochemical
# Set-up in all cases: KINOMEscan active-site competition binding panel (468 kinase assays), per cent of control at 1000 nM
# Details in all cases: KINOMEscan per cent of control (binding competition); read-out: Percent Control
# [1] = target: PLK2 (Homo sapiens, UniProt Q9NYY3)
# From the text: (§1) Figure S7 / Percent Control
# [2] = target: PIM3 (Homo sapiens, UniProt Q86V86)
# From the text: as §1
# [3] = target: BRSK2 (Homo sapiens, UniProt Q8IWQ3)
# From the text: as §1
# [4] = target: T1, PKAC-beta (Homo sapiens, UniProt P22694)
# T1 construct: gene PRKACB
# From the text: as §1
# [5] = target: TNK1 (Homo sapiens, UniProt Q13470)
# TNK1, sequence (Q13470 whole entry): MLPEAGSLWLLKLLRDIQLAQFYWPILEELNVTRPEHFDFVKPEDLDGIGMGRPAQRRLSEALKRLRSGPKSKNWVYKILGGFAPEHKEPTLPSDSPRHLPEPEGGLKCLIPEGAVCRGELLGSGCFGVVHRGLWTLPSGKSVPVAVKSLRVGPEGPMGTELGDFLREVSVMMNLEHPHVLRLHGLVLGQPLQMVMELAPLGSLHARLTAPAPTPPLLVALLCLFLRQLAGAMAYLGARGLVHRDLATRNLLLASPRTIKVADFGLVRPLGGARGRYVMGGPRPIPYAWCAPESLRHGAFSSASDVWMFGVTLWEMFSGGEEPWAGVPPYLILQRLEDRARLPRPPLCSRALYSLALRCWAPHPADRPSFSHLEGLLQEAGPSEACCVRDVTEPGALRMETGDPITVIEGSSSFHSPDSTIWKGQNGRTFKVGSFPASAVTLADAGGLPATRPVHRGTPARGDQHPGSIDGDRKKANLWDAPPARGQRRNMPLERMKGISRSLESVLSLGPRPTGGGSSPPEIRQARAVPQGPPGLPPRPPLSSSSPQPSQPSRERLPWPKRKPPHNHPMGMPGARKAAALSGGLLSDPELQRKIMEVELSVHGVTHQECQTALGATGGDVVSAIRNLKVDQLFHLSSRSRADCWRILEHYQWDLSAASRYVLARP
# From the text: as §1
# [6] = target: DMPK (Homo sapiens, UniProt Q09013)
# From the text: as §1
# [7] = target: T2, RSK1(Kin.Dom.2-C-terminal) (Homo sapiens, UniProt Q15418)
# T2 construct: gene RPS6KA1; Kin.Dom.2-C-terminal
# From the text: as §1
# [8] = target: ACVR1 (Homo sapiens, UniProt Q04771)
# From the text: as §1
# [9] = target: MYLK4 (Homo sapiens, UniProt Q86YV6)
# From the text: as §1
# [10] = target: T3, PIP5K2C (Homo sapiens, UniProt Q8TBX8)
# T3 construct: gene PIP4K2C
# From the text: as §1
# [11] = target: T4, MLK3 (Homo sapiens, UniProt Q16584)
# T4 construct: gene MAP3K11
# T4 sequence (Q16584 whole entry): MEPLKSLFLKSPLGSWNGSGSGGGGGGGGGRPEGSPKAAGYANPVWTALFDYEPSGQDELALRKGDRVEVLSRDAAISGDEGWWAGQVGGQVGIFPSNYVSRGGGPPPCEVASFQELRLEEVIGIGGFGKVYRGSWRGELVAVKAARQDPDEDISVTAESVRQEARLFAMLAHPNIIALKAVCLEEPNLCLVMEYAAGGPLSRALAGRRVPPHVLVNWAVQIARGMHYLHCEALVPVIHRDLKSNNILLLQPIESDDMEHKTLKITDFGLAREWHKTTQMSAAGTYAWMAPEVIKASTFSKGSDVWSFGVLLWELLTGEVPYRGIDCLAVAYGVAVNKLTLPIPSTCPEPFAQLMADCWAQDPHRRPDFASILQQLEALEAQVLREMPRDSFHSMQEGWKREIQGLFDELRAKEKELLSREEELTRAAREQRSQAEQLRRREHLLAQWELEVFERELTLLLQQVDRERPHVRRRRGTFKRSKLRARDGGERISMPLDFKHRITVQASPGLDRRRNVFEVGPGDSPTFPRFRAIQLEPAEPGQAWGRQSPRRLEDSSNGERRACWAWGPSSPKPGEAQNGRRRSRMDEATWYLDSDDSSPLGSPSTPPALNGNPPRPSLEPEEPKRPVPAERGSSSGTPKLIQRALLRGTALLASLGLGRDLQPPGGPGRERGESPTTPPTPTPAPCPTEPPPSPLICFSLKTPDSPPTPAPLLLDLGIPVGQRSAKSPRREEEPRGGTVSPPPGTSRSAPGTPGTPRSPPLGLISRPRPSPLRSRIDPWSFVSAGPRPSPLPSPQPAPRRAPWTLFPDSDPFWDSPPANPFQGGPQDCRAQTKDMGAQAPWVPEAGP
# From the text: as §1
# [12] = target: NEK3 (Homo sapiens, UniProt P51956)
# From the text: as §1
# [13] = target: PLK4 (Homo sapiens, UniProt O00444)
# From the text: as §1
# [14] = target: MELK (Homo sapiens, UniProt Q14680)
# MELK, sequence (Q14680 whole entry): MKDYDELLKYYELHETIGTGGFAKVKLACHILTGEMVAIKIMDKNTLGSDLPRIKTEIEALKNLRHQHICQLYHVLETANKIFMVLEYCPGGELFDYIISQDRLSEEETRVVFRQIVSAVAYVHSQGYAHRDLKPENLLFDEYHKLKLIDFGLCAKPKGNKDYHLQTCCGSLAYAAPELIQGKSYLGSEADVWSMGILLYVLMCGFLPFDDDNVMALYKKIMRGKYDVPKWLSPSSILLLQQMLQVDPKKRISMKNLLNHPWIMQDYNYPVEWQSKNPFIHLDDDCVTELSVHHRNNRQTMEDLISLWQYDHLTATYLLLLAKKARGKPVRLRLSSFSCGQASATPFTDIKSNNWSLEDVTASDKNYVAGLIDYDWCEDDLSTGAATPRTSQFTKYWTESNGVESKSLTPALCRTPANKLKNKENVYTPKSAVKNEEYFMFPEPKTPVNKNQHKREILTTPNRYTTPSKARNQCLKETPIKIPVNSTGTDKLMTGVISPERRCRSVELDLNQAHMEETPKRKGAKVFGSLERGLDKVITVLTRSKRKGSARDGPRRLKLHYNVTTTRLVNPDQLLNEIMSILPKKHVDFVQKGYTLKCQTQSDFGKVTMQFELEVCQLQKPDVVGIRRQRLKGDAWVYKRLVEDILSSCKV
# From the text: as §1
# [15] = target: CAMKK1 (Homo sapiens, UniProt Q8N5S9)
# From the text: as §1
# [16] = target: PIK3CA(C420R) (Homo sapiens, UniProt P42336, C420R)
# From the text: as §1
# [17] = target: T5, BRK (Homo sapiens, UniProt Q13882)
# T5 construct: gene PTK6
# T5 sequence (Q13882 whole entry): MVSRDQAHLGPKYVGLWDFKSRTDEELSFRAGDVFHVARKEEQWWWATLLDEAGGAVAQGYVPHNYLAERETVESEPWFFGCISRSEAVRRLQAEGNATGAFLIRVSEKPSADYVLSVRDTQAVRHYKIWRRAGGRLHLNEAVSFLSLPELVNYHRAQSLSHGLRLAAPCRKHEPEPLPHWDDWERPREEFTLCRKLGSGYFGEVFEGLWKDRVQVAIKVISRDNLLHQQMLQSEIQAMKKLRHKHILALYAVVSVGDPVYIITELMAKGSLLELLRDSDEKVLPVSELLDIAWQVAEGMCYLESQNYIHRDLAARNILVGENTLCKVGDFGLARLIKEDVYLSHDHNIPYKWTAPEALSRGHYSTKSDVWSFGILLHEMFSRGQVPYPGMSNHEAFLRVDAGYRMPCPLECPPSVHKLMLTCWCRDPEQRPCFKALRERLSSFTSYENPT
# From the text: as §1
# [18] = target: EPHB1 (Homo sapiens, UniProt P54762)
# EPHB1, sequence (P54762 whole entry): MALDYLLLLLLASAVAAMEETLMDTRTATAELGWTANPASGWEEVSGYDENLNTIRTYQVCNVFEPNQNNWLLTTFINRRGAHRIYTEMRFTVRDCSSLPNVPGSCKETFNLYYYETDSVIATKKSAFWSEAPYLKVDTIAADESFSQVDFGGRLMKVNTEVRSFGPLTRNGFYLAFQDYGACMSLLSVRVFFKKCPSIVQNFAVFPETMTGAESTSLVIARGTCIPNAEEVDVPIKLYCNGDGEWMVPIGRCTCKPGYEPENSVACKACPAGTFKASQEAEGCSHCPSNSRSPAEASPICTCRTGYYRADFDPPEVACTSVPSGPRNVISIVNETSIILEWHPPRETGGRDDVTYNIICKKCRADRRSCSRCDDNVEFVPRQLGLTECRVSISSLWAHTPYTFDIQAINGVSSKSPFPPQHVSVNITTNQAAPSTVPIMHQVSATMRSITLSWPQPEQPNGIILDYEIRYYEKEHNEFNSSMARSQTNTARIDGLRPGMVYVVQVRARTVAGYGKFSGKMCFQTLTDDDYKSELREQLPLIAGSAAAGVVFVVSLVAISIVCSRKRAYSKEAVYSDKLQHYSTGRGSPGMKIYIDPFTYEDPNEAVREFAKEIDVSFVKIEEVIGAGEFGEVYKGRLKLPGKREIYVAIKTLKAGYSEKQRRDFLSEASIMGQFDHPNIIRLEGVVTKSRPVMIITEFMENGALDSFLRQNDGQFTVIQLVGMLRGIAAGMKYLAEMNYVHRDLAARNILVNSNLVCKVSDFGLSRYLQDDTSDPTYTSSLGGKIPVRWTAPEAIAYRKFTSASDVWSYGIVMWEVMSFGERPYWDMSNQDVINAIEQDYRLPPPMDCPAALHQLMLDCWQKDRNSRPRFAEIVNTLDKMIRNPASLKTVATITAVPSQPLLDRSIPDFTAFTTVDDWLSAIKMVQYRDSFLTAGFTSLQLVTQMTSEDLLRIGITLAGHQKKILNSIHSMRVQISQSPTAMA
# From the text: as §1
# [19] = target: T6, YSK4 (Homo sapiens, UniProt Q56UN5)
# T6 construct: gene MAP3K19
# From the text: as §1
# [20] = target: EPHA8 (Homo sapiens, UniProt P29322)
# EPHA8, sequence (P29322 whole entry): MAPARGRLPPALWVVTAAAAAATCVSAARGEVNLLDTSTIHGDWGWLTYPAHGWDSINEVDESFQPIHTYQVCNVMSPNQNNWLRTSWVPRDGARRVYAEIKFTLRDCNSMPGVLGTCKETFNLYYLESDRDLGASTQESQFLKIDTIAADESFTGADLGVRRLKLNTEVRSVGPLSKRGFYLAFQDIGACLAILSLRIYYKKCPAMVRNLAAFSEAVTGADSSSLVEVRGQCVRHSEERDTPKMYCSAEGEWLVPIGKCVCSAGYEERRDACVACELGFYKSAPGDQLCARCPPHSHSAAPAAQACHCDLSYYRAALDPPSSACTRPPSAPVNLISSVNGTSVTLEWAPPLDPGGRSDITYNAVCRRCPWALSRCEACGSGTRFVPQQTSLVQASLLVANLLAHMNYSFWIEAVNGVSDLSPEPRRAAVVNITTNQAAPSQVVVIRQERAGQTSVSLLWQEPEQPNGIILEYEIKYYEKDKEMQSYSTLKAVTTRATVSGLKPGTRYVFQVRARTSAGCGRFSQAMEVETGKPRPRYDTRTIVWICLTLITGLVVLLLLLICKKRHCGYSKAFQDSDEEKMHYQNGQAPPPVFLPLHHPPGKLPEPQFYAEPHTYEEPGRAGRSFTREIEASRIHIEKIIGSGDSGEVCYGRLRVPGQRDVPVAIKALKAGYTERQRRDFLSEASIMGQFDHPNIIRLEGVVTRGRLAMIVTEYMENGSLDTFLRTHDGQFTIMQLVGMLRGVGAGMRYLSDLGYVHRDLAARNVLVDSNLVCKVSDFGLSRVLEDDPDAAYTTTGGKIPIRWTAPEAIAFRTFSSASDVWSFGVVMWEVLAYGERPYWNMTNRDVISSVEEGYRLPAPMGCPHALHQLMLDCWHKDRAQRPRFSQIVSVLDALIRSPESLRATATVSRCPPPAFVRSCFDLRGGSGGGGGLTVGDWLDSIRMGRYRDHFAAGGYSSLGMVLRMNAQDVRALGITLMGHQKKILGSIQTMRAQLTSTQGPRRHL
# From the text: as §1
# [21] = target: T7, PIK4CB (Homo sapiens, UniProt Q9UBF8)
# T7 construct: gene PI4KB
# From the text: as §1
# [22] = target: CSNK2A1 (Homo sapiens, UniProt P68400)
# From the text: as §1
# [23] = target: SIK2 (Homo sapiens, UniProt Q9H0K1)
# From the text: as §1
# [24] = target: T8, PAK7 (Homo sapiens, UniProt Q9P286)
# T8 construct: gene PAK5
# From the text: as §1
# [25] = target: NEK11 (Homo sapiens, UniProt Q8NG66)
# From the text: as §1
structure (smiles),measurement,setting,value
Cn1c(=O)[nH]c2ccc(-c3cccc(C(=O)NC4CCn5ccnc5C4)c3)cc21 (stereo not shown) [Z36-MP5],remaining binding at 1 µM,[1],55%
same,remaining binding at 1 µM,[2],85%
same,remaining binding at 1 µM,[3],100%
same,remaining binding at 1 µM,[4],96%
same,remaining binding at 1 µM,[5],77%
same,remaining binding at 1 µM,[6],99%
same,remaining binding at 1 µM,[7],98%
same,remaining binding at 1 µM,[8],47%
same,remaining binding at 1 µM,[9],93%
same,remaining binding at 1 µM,[10],80%
same,remaining binding at 1 µM,[11],93%
same,remaining binding at 1 µM,[12],50%
same,remaining binding at 1 µM,[13],31%
same,remaining binding at 1 µM,[14],85%
same,remaining binding at 1 µM,[15],39%
same,remaining binding at 1 µM,[16],91%
same,remaining binding at 1 µM,[17],100%
same,remaining binding at 1 µM,[18],89%
same,remaining binding at 1 µM,[19],85%
same,remaining binding at 1 µM,[20],75%
same,remaining binding at 1 µM,[21],100%
same,remaining binding at 1 µM,[22],61%
same,remaining binding at 1 µM,[23],81%
same,remaining binding at 1 µM,[24],92%
same,remaining binding at 1 µM,[25],33%
